These results are taken from ChEMBL document CHEMBL1201862, “PubChem BioAssay data set” (2004).

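How tested: cells in 96-well plates exposed to compound for 48 hours at five concentrations. The concentration for 50% growth inhibition is given as GI50.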 Active and inactive are the calls of the source. Rule as the data show it: active = GI50 up to about 1.1 µM and inactive = higher.

Some test systems named below: RXF 393; SR; 786-0; TK-10; SF-268; SW-620; MOLT-4; IGROV-1; HOP-92; SN12C; SK-MEL-28; UACC-62; ACHN; MDA-N; RPMI-8226; SF-539; HOP-62; CAKI-1; HCC 2998; UACC-257.
What all share (experiment): NCI anticancer screen, dose series, 48 h

For the molecule `CC(=O)C1C(=O)C(C(C)=O)C2C3C=CC(C3)C12` (stereo not given), the GI50 in the experiment on RXF 393, in the experiment with SR, with 786-0, in the experiment with TK-10, with SF-268 and in the experiment on SW-620 was > 100 µM (inactive) throughout. Moreover, the GI50 in the experiment with MOLT-4, in the experiment on IGROV-1, in the experiment with HOP-92, with SN12C, in the experiment with SK-MEL-28 and in the experiment on UACC-62 was > 100 µM (inactive) in each case. Also, the GI50 in the experiment with ACHN, in the experiment with MDA-N, in the experiment on RPMI-8226, with SF-539, with HOP-62 and in the experiment with CAKI-1 was > 100 µM (inactive) in each case. Further, the GI50 with HCC 2998 and with UACC-257 was > 100 µM (inactive) in each case.

On to `Cc1ccccc1-n1c(=O)nc2n(-c3ccc(C(C)(C)C)cc3)c3ccccc3cc-2c1=O`, for which the GI50 in the experiment on RXF 393 is 21.8 µM (inactive); with SR it was 30.1 µM (inactive); with 786-0, 24.4 µM (inactive); with TK-10, 37.7 µM (inactive); in the experiment on SF-268, 27.5 µM (inactive); in the experiment on SW-620, 15.9 µM (inactive). Besides, the GI50 in the experiment on MOLT-4 was 23.8 µM (inactive); with IGROV-1, 24.3 µM (inactive); in the experiment on HOP-92 it was 21.4 µM (inactive); in the experiment with SN12C, 17.7 µM (inactive); with SK-MEL-28, 15.3 µM (inactive); in the experiment with UACC-62, 19.2 µM (inactive). Further, the GI50 was 32.5 µM (inactive) with ACHN; 22.6 µM (inactive) in the experiment with MDA-N; 24.2 µM (inactive) in the experiment with RPMI-8226; 17.8 µM (inactive) in the experiment with SF-539; 20.2 µM (inactive) in the experiment with HOP-62; 23.9 µM (inactive) with CAKI-1. The results for the GI50 with HCC 2998 and in the experiment on UACC-257 were 18.1 µM (inactive) and 17.2 µM (inactive), respectively.

For the molecule `Brc1ccc2[nH]cc(-c3nc(-c4c[nH]c5ccccc45)cs3)c2c1`, the GI50 with RXF 393 was 5.48 µM (inactive); in the experiment with SR, 3.44 µM (inactive); in the experiment on 786-0 it was 2.86 µM (inactive); in the experiment with TK-10, 3.56 µM (inactive); with SF-268, 3 µM (inactive); in the experiment with SW-620, 3.16 µM (inactive). In addition, the GI50 in the experiment on MOLT-4 was 2.11 µM (inactive); in the experiment on IGROV-1, 1.58 µM (inactive); in the experiment on HOP-92, 2.54 µM (inactive); in the experiment with SN12C, 3.49 µM (inactive); in the experiment on SK-MEL-28, 5.81 µM (inactive); in the experiment with UACC-62, 2.37 µM (inactive). Moreover, the GI50 was 2.43 µM (inactive) in the experiment on ACHN; 2.91 µM (inactive) in the experiment with MDA-N; 3.18 µM (inactive) in the experiment with RPMI-8226; 2.9 µM (inactive) in the experiment on SF-539; 4.58 µM (inactive) in the experiment with HOP-62; 2.74 µM (inactive) in the experiment with CAKI-1. The GI50 in the experiment on HCC 2998 is 2.3 µM (inactive); in the experiment on UACC-257, 3.97 µM (inactive).

With `COC(=O)C1c2cc3c(cc2C(OC2OC(C)C(OC)C(C)(OC)C2OC)CC1(C)O)C(=O)c1c(O)cc2c(c1C3=O)OC1OC2(C)C(O)C([N+](C)(C)[O-])C1O` (stereo not given), the GI50 with RXF 393 was 0.179 µM (active); in the experiment with SR it was 0.305 µM (active); in the experiment with 786-0 it was 0.111 µM (active); in the experiment with TK-10, 2.83 µM (inactive); in the experiment with SF-268 it was 0.0891 µM (active); in the experiment with SW-620, 0.0845 µM (active). Further, the GI50 in the experiment on MOLT-4 is 0.416 µM (active); in the experiment on IGROV-1, 0.0791 µM (active); with HOP-92 it was 0.144 µM (active); in the experiment with SN12C, 0.102 µM (active); in the experiment on SK-MEL-28, 0.195 µM (active); with UACC-62, 0.0509 µM (active). Besides, the GI50 in the experiment with ACHN was 0.309 µM (active); in the experiment with MDA-N, 0.0512 µM (active); in the experiment with RPMI-8226 it was 0.122 µM (active); in the experiment with SF-539, 0.0883 µM (active); with HOP-62 it was 0.336 µM (active); in the experiment with CAKI-1, 0.938 µM (active). Also, the GI50 is 0.146 µM (active) in the experiment with HCC 2998 and 0.182 µM (active) in the experiment with UACC-257.

As for `CC(=O)/C(=C\NC(N)=S)C(=O)Nc1ccccc1C`, the GI50 in the experiment on RXF 393, with SR, with 786-0, in the experiment on TK-10, with SF-268 and in the experiment on SW-620 was > 100 µM (inactive) in each case. For the same molecule, the GI50 with MOLT-4, in the experiment with IGROV-1, in the experiment with HOP-92, in the experiment with SN12C, in the experiment on SK-MEL-28 and with UACC-62 was > 100 µM (inactive) throughout. For the same molecule, the GI50 in the experiment on ACHN, in the experiment on MDA-N, with RPMI-8226, in the experiment with SF-539, with HOP-62 and in the experiment on CAKI-1 was > 100 µM (inactive) each time. For the same molecule, the GI50 in the experiment with HCC 2998 and in the experiment on UACC-257 was > 100 µM (inactive) each time.

As for `COc1cc(C2C3=C(COC3=O)Oc3cc4c(cc32)OCO4)ccc1OC(C)=O` (stereo not given), the GI50 was 0.67 µM (active) with RXF 393; 0.179 µM (active) in the experiment with SR; 0.521 µM (active) with 786-0; > 100 µM (inactive) with TK-10; 1.09 µM (active) in the experiment with SF-268; 0.284 µM (active) in the experiment on SW-620. The GI50 with MOLT-4 was 0.536 µM (active); in the experiment with IGROV-1, 0.238 µM (active); in the experiment with HOP-92 it was 6 µM (inactive); in the experiment with SN12C, 2.19 µM (inactive); in the experiment with SK-MEL-28 it was 10.8 µM (inactive); in the experiment with UACC-62, 0.54 µM (active). The GI50 with ACHN is 0.55 µM (active); with MDA-N, 0.0467 µM (active); with RPMI-8226 it was 0.34 µM (active); in the experiment with SF-539, 0.25 µM (active); with HOP-62, 1.73 µM (inactive); in the experiment on CAKI-1, 0.303 µM (active). The GI50 with HCC 2998 was 1.01 µM (active); in the experiment on UACC-257, > 100 µM (inactive).

In the case of `CCOC(=O)C(NC(=O)c1cccc(Cl)c1)(Nc1cccc(C)c1)C(F)(F)F` (stereo not given), the GI50 in the experiment on RXF 393 was 13 µM (inactive); in the experiment with SR, 28.7 µM (inactive); in the experiment on 786-0 it was 23.3 µM (inactive); in the experiment on TK-10, 29.8 µM (inactive); in the experiment on SF-268 it was 15.3 µM (inactive); with SW-620, 16.4 µM (inactive). The GI50 in the experiment with MOLT-4 is 20.4 µM (inactive); in the experiment on IGROV-1, 12.8 µM (inactive); in the experiment with HOP-92 it was 15 µM (inactive); with SN12C it was 21.2 µM (inactive); in the experiment with SK-MEL-28, 17.4 µM (inactive); in the experiment with UACC-62, 14.5 µM (inactive). Also, the GI50 in the experiment on ACHN is 15.9 µM (inactive); in the experiment with MDA-N, 17.5 µM (inactive); in the experiment on RPMI-8226, 18.3 µM (inactive); in the experiment on SF-539 it was 17.9 µM (inactive); in the experiment with HOP-62 it was 17.7 µM (inactive); in the experiment on CAKI-1 it was 20.7 µM (inactive). Further, the GI50 was 16.7 µM (inactive) with HCC 2998 and 25.7 µM (inactive) with UACC-257.

For `C=C1C(=O)O[C@H]2[C@H](OC(C)=O)[C@@H](C)CCC/C(C)=C/CC[C@@]3(C)O[C@@H]3C[C@@H]12`, the GI50 with RXF 393 was 1.87 µM (inactive); with SR it was 1.86 µM (inactive); with 786-0, 1.6 µM (inactive); with TK-10, 2.13 µM (inactive); with SF-268, 5.62 µM (inactive); in the experiment on SW-620, 2.58 µM (inactive). Further, the GI50 in the experiment with MOLT-4 was 2.6 µM (inactive); in the experiment on IGROV-1, 2.77 µM (inactive); with HOP-92, 1.92 µM (inactive); with SN12C, 1.61 µM (inactive); with SK-MEL-28, 4.72 µM (inactive); in the experiment with UACC-62, 4.11 µM (inactive). Further, the GI50 was 1.72 µM (inactive) in the experiment with ACHN; 2.94 µM (inactive) in the experiment on MDA-N; 1.4 µM (inactive) in the experiment on RPMI-8226; 1.95 µM (inactive) in the experiment with SF-539; 15.6 µM (inactive) in the experiment on HOP-62; 2.19 µM (inactive) with CAKI-1. Besides, the GI50 with HCC 2998 is 5.27 µM (inactive); in the experiment on UACC-257, 5.06 µM (inactive).

`COc1ccc(/N=N/C(=O)NC(CC(C)C)C(=O)NCC(=O)O)cc1` (stereo not given): the GI50 in the experiment with RXF 393 was > 100 µM (inactive); with SR, 19.5 µM (inactive); in the experiment on 786-0, > 100 µM (inactive); with TK-10 it was 25.3 µM (inactive); with SF-268 it was > 43.8 µM (inactive); with SW-620, 12.8 µM (inactive). The GI50 was 1.83 µM (inactive) in the experiment with MOLT-4; 6.27 µM (inactive) with IGROV-1; > 100 µM (inactive) in the experiment with HOP-92; > 46.8 µM (inactive) in the experiment on SN12C; 57.7 µM (inactive) with SK-MEL-28; 1.61 µM (inactive) with UACC-62. Besides, the GI50 is 1.54 µM (inactive) with ACHN; 26.6 µM (inactive) in the experiment with MDA-N; 11.7 µM (inactive) with RPMI-8226; 4.18 µM (inactive) in the experiment with SF-539; 41.6 µM (inactive) in the experiment with HOP-62; > 100 µM (inactive) in the experiment on CAKI-1. In addition, the GI50 is 8.97 µM (inactive) in the experiment with HCC 2998 and 32.8 µM (inactive) with UACC-257.

Consider `CC1=NN(C(=O)c2ccccc2O)C(=O)/C1=C/c1ccco1`, for which the GI50 in the experiment on RXF 393 is 0.171 µM (active); in the experiment on SR, 2.94 µM (inactive); in the experiment on 786-0, 1.64 µM (inactive); in the experiment on TK-10, 33.9 µM (inactive); in the experiment with SF-268 it was 1.11 µM (active); in the experiment on SW-620, 3.3 µM (inactive). Further, the GI50 with MOLT-4 was 1.93 µM (inactive); in the experiment with IGROV-1 it was 1.26 µM (inactive); in the experiment with HOP-92, 7.03 µM (inactive); in the experiment on SN12C it was 2.96 µM (inactive); with SK-MEL-28, 14.6 µM (inactive); in the experiment on UACC-62, 0.436 µM (active). Further, the GI50 in the experiment with ACHN is 2.26 µM (inactive); with MDA-N, 0.53 µM (active); with RPMI-8226, 5.57 µM (inactive); in the experiment on SF-539 it was 0.818 µM (active); in the experiment on HOP-62 it was 0.497 µM (active); in the experiment with CAKI-1, 1.61 µM (inactive). Further, the GI50 was > 22.8 µM (inactive) in the experiment on HCC 2998 and 8.73 µM (inactive) in the experiment on UACC-257.
